Test system: zebrafish embryos
Experiment: Cardiotoxicity screen in zebrafish embryos: heart rate and heart beat rhythm from video of blood circulation with power spectral analysis, and by direct examination of heart
Assay type: in vivo
Conditions: 48-hpf zebrafish embryos, 2 μM haloperidol in egg medium, 4 hour incubation; direct examination of heart and power spectral analysis (FIG. 7); p<0.05 vs control
Excerpt: Before videoing blood cell circulation, the teleost is immobilized on a surface, for example, glass slide or plastic petri dish. Immobilization medium can be agarose, agar or methyl-cellulose. The optimal concentration of agarose or agar used is 0.5% (w/v) or lower. The concentration of methyl-cellulose used is 2-4% (w/v). Teleosts should be oriented in their spontaneous lateral position.
A video imaging system consists of a microscope, either stereomicroscope or conventional light microscope, with low magnification objective (FIG. 1). […] Video recorded in medium, e.g. VCR tape or mini DV tape, or recorded in personal computer is converted back to readable format, such as AVI or WMV format, and stored in personal computer for further video image analysis. […]
Data analysis of the series of the amount of differential pixels obtained from video image analysis is performed by methods implemented in the home-made software. Data series of amount of differential pixels is analyzed by comprising power spectral analysis in which data series of differential pixels is decomposed by discrete Fourier transform. […] A total power value of the spectrum is calculated. […]
The embodiment is tested in wild type embryos at 52 hpf. […] Heart rate is determined from direct visual counting of the number of heart beats in 1 min. […] In addition, the cardiac rhythm is determined as the standard deviation of heart beat time interval. […]

SMILES: O=C(CCCN1CCC(O)(c2ccc(Cl)cc2)CC1)c1ccc(F)cc1 [haloperidol]
- heart rate: significantly decreased

From patent publication US9535057B2, “Method of in vivo screening for cardiac toxic agents using teleost” (CITY UNIVERSITY OF HONG KONG, priority 2007, dated 2017)
